Data taken from patent US20250034139A1, “AMINE COMPOUNDS HAVING ANTI-INFLAMMATORY, ANTIFUNGAL, ANTIPARASITIC, AND ANTICANCER ACTIVITY” (PHARMA CINQ, LLC, priority 2013, published 2025).
In brackets after ≈: the same amount, converted by molar mass. Like-named read-outs stand apart in the source and are kept apart here.

Key:
[1] = tested on: Cryptococcus neoformans (serotype A); assay: Example L: Cryptococcus neoformans (serotype A) growth inhibition; format: cell-based; conditions: Cryptococcus neoformans; for MIC: read-out: MIC, uM (concentration for maximum - 99% of inhibition)
Method: Cryptococcus neoformans (serotype A) were plated in 96 well plates with 144 μl/well of 5×10e5 CFU/ml in YPD growth medium. Diluted compounds were then added to each well with concentration ranged from 0.05 to 10 μM as final concentration in duplicates. The plates were inoculated at 30° C. Two readings of OD at 600 nm were measured after 18 hr and […] treatments.
C12-imidazol had relative weak activity against Cryptococcus serotype A at low concentration. Data plotted was based on 26 hour reading because 18 hour reading was too low.
• 1. Pick a single colony of Cryptococcus from the Sabouraud Dextrose agar plate using the inoculum loop and inoculate into a 125 ml flask containing 25 ml of YPD growth medium • 2. Incubate at 30° C. with shaking at 220 rpm for 24 hours with loosen lid to allow air in and facilitates growth. • 3. Examine an aliquot of the culture under a microscope for yeast cell morphology and lack of bacterial contamination. • 4. Dilute the overnight culture with YPD medium at 1:100 dilution and count the number of cells as 8×10^6 cfu/ml. • 5. Make a final concentration of cells suspension at 5×10^5 cfu/ml in YPD medium after the stock culture had been stored at 4° C. for 3 days. • 6. Plate 144 μl/well of 5×10^5 cfu/ml cell suspension on 96-well plates. Part-II: Cryptococcus Growth Inhibition Testing with Compounds • 1. From 10 mM DMSO stock solutions, make serial dilutions of compounds to 0.0013, 0.0025, 0.0125, 0.025, 0.05, 0.125 and 0.25 mM solution • 2. Add 6 ul each of diluted compound solutions per well in duplicates. The final concentrations were 0, 0.05, 0.1, 0.5, 1.0, 2.0, 5.0 and 10 micromolar. • 3. Incubated all plates at 30° C. overnight with 175 rpm shaking. • 4. Read absorbance at OD600 after 18 and 26 hours for each plate. • 5. Calculated the % inhibition and IC50 of each compound against the untreated cell.

Rhizopus strains = assay: Example N: MIC and MFC (CLSI) against Rhizopus; format: cell-based, Rhizopus spp.; conditions: for MIC50 / MIC: Rhizopus; for MFC: range over Rhizopus strains, in 48 hr
Method: (§1) The objective of this study was to determine the antifungal activity of eight experimental compounds against a representative panel of fungal isolates, including Candida albicans, C. glabrata, Cryptococcus neoformans, Trichophyton rubrum, Aspergillus fumigatus, and Rhizopus spp. Antifungal activity was measured by minimum inhibitory concentration (MIC) and minimum fungicidal concentration (MFC).
(§2) Three recent clinical strains of each species, taken from the culture collection at the Center for Medical Mycology, Case Western University, were tested.
(§3) Compounds in powder form were dissolved in DMSO. Serial dilutions of each compound were then prepared in RPMI-1640 in a range of […].
(§4) MIC testing was performed according to the CLSI M27-A3 and M38-A2 standards for the susceptibility testing of yeasts and filamentous fungi, respectively (1, 2). Test isolates were subcultured from frozen slants onto potato dextrose agar plates (Trichophyton rubrum was subcultured onto oatmeal plates for conidia production) and checked for purity. Inocula were then prepared in RPMI-1640 (YNB for Cryptococcus) to a concentration of 0.5-2.5×10^3 colony-forming units (CFU)/ml or 0.4-5×10^4 conidia/ml for yeast and filamentous fungi, respectively.
(§5) MFC determinations were performed according to the modifications previously described by Canton et al. and Ghannoum and Isham. (3, 4) Specifically, the total contents of each clear well from the MIC assay were subcultured onto potato dextrose agar. To avoid antifungal carryover, the aliquots were allowed to soak into the agar and then were streaked for isolation once dry, thus removing the cells from the drug source.

[2] = tested on: Trichophyton rubrum strains; assay: Example N: MIC and MFC (CLSI) against Trichophyton rubrum; format: cell-based; conditions: for MIC: read-out: MIC 100%, Range, incubated for 96 hrs, three clinical strains; for MFC: three clinical strains
Method: as §1, §2, §3, §4, §5

THP-1 cells = assay: Example C: compound screen, viable THP-1 cell count after 5 hours +/- LPS; format: cell-based, Human; conditions: for ability to inactivate pro-inflammatory THP-1 cells, in words (relative to benchmark AC): LPS-treated THP-1 cells
From the text: Background: THP-1 is a human acute myeloid leukemia (AML) cell line that can be induced into a macrophage-like cell with vitamin-D3 (vit-D3). In the macrophage, LPS (lipopolysaccharide; endotoxin) stimulation of toll-like receptor 4 (TLR-4) leads to NF-κB activation and secretion of inflammatory cytokines but also the priming of programmed death pathways through RIP and Caspase 8. The balance of this complex regulatory network is dependent on highly specific kinases, enzymes that require ATP. Disruption of either cytosolic pH or ATP availability/energy level uncouples this control network and the can macrophage shift away from production of inflammatory cytokines towards a programmed death event, which has the net effect of limiting inflammatory damage.

[3] = tested on: imiquimod-induced dermatitis
Procedure, shortened: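 Female Balb/C mice (8 weeks, n=5/group) received 5% imiquimod on both ears daily for 5 days, then every other day; topical test ointments applied to both ears from day 7. Petrolatum with 10% ethanol served as vehicle. Ear thickness and PASI (swelling, erythema, scaling, 0–12) recorded twice weekly.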

Candida glabrata strains = assay: Example N: MIC and MFC (CLSI) against Candida glabrata; format: cell-based; conditions: for cidal activity (MFC within 4 dilutions of the MIC), in words: 3 strains; for MIC50 / MIC / MFC: Nakaseomyces glabratus; for MIC: read-out: MIC 100%; for MFC: range over Candida glabrata strains, in 48 hr
Method: as §1, §2, §3, §4, §5

[4] = Macrophage, direct inhibition, values of the earlier study (Table 25), read-out: IC50 value (μM) for inhibition of fungal growth, No macrophages
[5] = OD of 26 hour reading, 30° C., XLfit
[6] = read-out: IC50, uM (concentration for 50% of inhibition), OD of 26 hour reading, 30° C., XLfit

MIC [1, 5] [µM] | MIC50 (Rhizopus strains; 24 h) [µg/mL] | MIC (Rhizopus strains; 24 h, read-out: MIC 100%) [µg/mL] | MIC50 (Rhizopus strains; 48 h) [µg/mL] | MIC (Rhizopus strains; 48 h, read-out: MIC 100%) [µg/mL] | MIC [2] [µg/mL] | MIC50 (Candida glabrata strains; 24 h) [µg/mL] | MIC (Candida glabrata strains; 24 h) [µg/mL] | MIC50 (Candida glabrata strains; 48 h) [µg/mL] | MIC (Candida glabrata strains; 48 h) [µg/mL] | SMILES | IC50 [1, 4] [µM] | MIC at 100% inhibition (Rhizopus strains; 24 hrs) [µg/mL] | MFC (Rhizopus strains) [µg/mL] | MFC [2] [µg/mL] | Reduction in viable THP-1 cell count (percent change) from 0 hours, Mean ± SE (THP-1 cells; Compound (0.1 μM), No LPS) [%] | Reduction in viable THP-1 cell count (percent change) from 0 hours, Mean ± SE (THP-1 cells; Compound (0.1 μM), Plus LPS) [%] | Reduction in viable THP-1 cell count (percent change) from 0 hours, Mean ± SE (THP-1 cells; Compound (1.0 μM), No LPS) [%] | Reduction in viable THP-1 cell count (percent change) from 0 hours, Mean ± SE (THP-1 cells; Compound (1.0 μM), Plus LPS) [%] | cidal activity (MFC within 4 dilutions of the MIC), in words (Candida glabrata strains) | MFC (Candida glabrata strains) [µg/mL] | further results
11.4 (≈ 3.23 µg/mL) | 1 to 2 (≈ 3.52 to 7.03 µM) | 2 (≈ 7.03 µM) | 2 to 4 (≈ 7.03 to 14.1 µM) | 2 to 4 (≈ 7.03 to 14.1 µM) | 0.25 to 2 (≈ 0.879 to 7.03 µM) | 0.25 to 1 (≈ 0.879 to 3.52 µM) | 0.5 to 2 (≈ 1.76 to 7.03 µM) | 0.5 to 2 (≈ 1.76 to 7.03 µM) | 0.5 to 2 (≈ 1.76 to 7.03 µM) | CCCCCCCCCCNc1ccnc2ccccc12 [Compound AG, N-(Decyl)quinolin-4-amine] | – | – | 4 to 16 (≈ 14.1 to 56.2 µM) | 0.5 to 2 (≈ 1.76 to 7.03 µM) | −6.24 ± 0.69 | −21.28 ± 1.52 | −4.02 ± 2.83 | −38.58 ± 0.73 | cidal against all of the C. glabrata strains tested | 4 (≈ 14.1 µM) | IC50 [1, 6]: 2.14 µM; ability to inactivate pro-inflammatory THP-1 cells, in words (relative to benchmark AC) (THP-1 cells): higher activity than the active benchmark compound AC
12 (≈ 3.43 µg/mL) | 0.25 to 0.5 (≈ 0.876 to 1.75 µM) | 2 (≈ 7.01 µM) | 2 (≈ 7.01 µM) | 2 (≈ 7.01 µM) | 0.25 to 4 (≈ 0.876 to 14 µM) | 2 (≈ 7.01 µM) | 4 to 8 (≈ 14 to 28 µM) | 4 to 8 (≈ 14 to 28 µM) | 4 to 8 (≈ 14 to 28 µM) | CCCCCCCCCCNc1ncnc2ccccc12 [Compound AH, N-(Decyl)quinazolin-4-amine] | 0.39 | 2 (≈ 7.01 µM) | 64 (≈ 224 µM) | 0.25 to 16 (≈ 0.876 to 56.1 µM) | −9.66 ± 1.34 | −26.55 ± 0.95 | −7.87 ± 0.98 | −35.51 ± 3.90 | – | 8 to 64 (≈ 28 to 224 µM) | IC50 [1, 6]: 0.39 µM; MIC at 50% inhibition (Rhizopus strains; 48 hr): 2 µg/mL (≈ 7.01 µM); MIC at 100% inhibition (Rhizopus strains; 48 hr): 2 µg/mL (≈ 7.01 µM); ability to inactivate pro-inflammatory THP-1 cells, in words (relative to benchmark AC) (THP-1 cells): higher activity than the active benchmark compound AC

SMILES | MIC [1, 5] [µM] | MIC50 (Rhizopus strains; 24 h) [µg/mL] | MIC (Rhizopus strains; 24 h, read-out: MIC 100%) [µg/mL] | MIC50 (Rhizopus strains; 48 h) [µg/mL] | MIC (Rhizopus strains; 48 h, read-out: MIC 100%) [µg/mL] | MIC [2] [µg/mL] | MIC50 (Candida glabrata strains; 24 h) [µg/mL] | MIC (Candida glabrata strains; 24 h) [µg/mL] | MIC50 (Candida glabrata strains; 48 h) [µg/mL] | MIC (Candida glabrata strains; 48 h) [µg/mL] | IC50 [1, 4] [µM] | MIC at 100% inhibition (Rhizopus strains; 24 hrs) [µg/mL] | MFC (Rhizopus strains) [µg/mL] | MFC [2] [µg/mL] | Reduction in viable THP-1 cell count (percent change) from 0 hours, Mean ± SE (THP-1 cells; Compound (0.1 μM), No LPS) [%] | Reduction in viable THP-1 cell count (percent change) from 0 hours, Mean ± SE (THP-1 cells; Compound (0.1 μM), Plus LPS) [%] | Reduction in viable THP-1 cell count (percent change) from 0 hours, Mean ± SE (THP-1 cells; Compound (1.0 μM), No LPS) [%] | Reduction in viable THP-1 cell count (percent change) from 0 hours, Mean ± SE (THP-1 cells; Compound (1.0 μM), Plus LPS) [%] | cidal activity (MFC within 4 dilutions of the MIC), in words (Candida glabrata strains) | MFC (Candida glabrata strains) [µg/mL] | further results
CCCCCCOc1cccc(CNc2ccnc3ccccc23)c1 [Compound AC, N-[3-(Hexyloxy)benzyl]quinolin-4-amine] | 12.6 (≈ 4.2 µg/mL) | 0.12 to 0.25 (≈ 0.359 to 0.747 µM) | 0.5 (≈ 1.49 µM) | 0.5 (≈ 1.49 µM) | 0.5 to 1 (≈ 1.49 to 2.99 µM) | 0.5 to 4 (≈ 1.49 to 12 µM) | 0.5 to 1 (≈ 1.49 to 2.99 µM) | 1 to 2 (≈ 2.99 to 5.98 µM) | 1 to 2 (≈ 2.99 to 5.98 µM) | 2 to 4 (≈ 5.98 to 12 µM) | 1.15 | 0.5 (≈ 1.49 µM) | 16 to 64 (≈ 47.8 to 191 µM) | 0.5 to 4 (≈ 1.49 to 12 µM) | −7.48 ± 5.82 | −15.14 ± 2.06 | −9.60 ± 1.96 | −44.25 ± 2.53 | cidal against all of the C. glabrata strains tested | 4 to 8 (≈ 12 to 23.9 µM) | MIC at 50% inhibition (Rhizopus strains; 24 hrs): <0.12-0.25; MIC (Rhizopus strains; read-out: MIC at 50% inhibition, 48 hr): 0.5 µg/mL (≈ 1.49 µM); MIC (Rhizopus strains; read-out: MIC at 100% inhibition, 48 hr): 0.5 to 1 µg/mL (≈ 1.49 to 2.99 µM); Ear thickness, Mean ± SEM ([3]; imiquimod-treated mice, topical ointment 0.06% active drug (dexamethasone 0.03%, tacrolimus 0.1%)): 0.501 ± 0.030; Body Weight (mean ± SEM), Final ([3]; mouse, in vivo): 21.3 ± 0.6 g; Body Weight (mean ± SEM), Initial ([3]; mouse, in vivo): 21.1 ± 0.7 g; D BW (g) ([3]; mouse, in vivo): +0.2 g; PASI Score, Mean ± SEM ([3]; scale 0-12, topical ointment 0.06% active drug (dexamethasone 0.03%, tacrolimus 0.1%)): 7.150 ± 0.221
